Reference: publication PMC10112504, “Novel 4-thiophenyl-pyrazole, pyridine, and pyrimidine derivatives as potential antitumor candidates targeting both EGFR and VEGFR-2; design, synthesis, biological evaluations, and in silico studies” (RSC Advances, 2023)

Assays:
HepG-2 = test: Anti-proliferative activity, SRB colorimetric assay; format: cell-based; details: for IC50: Homo sapiens, HepG2, HepG-2 cancer cell line, SRB assay, read-out: Cell lines (IC50 μM) HepG-2; for anti-proliferative activity against HepG-2, in words: authors' grading of Table 1 values, key not given
MCF-7 = test: as above; format: cell-based; details: for IC50: Homo sapiens, MCF7, MCF-7 cancer cell line, SRB assay, read-out: Cell lines (IC50 μM) MCF-7; for anti-proliferative activity against MCF-7, in words: authors' grading of Table 1 values, key not given
EGFR = EGFR (Homo sapiens, UniProt P00533); test: EGFR inhibitory activity, homogeneous luminescence release assay; format: biochemical; details: reference erlotinib; read-out: EGFR inhibition IC50
EGFR, sequence (P00533 25-1210): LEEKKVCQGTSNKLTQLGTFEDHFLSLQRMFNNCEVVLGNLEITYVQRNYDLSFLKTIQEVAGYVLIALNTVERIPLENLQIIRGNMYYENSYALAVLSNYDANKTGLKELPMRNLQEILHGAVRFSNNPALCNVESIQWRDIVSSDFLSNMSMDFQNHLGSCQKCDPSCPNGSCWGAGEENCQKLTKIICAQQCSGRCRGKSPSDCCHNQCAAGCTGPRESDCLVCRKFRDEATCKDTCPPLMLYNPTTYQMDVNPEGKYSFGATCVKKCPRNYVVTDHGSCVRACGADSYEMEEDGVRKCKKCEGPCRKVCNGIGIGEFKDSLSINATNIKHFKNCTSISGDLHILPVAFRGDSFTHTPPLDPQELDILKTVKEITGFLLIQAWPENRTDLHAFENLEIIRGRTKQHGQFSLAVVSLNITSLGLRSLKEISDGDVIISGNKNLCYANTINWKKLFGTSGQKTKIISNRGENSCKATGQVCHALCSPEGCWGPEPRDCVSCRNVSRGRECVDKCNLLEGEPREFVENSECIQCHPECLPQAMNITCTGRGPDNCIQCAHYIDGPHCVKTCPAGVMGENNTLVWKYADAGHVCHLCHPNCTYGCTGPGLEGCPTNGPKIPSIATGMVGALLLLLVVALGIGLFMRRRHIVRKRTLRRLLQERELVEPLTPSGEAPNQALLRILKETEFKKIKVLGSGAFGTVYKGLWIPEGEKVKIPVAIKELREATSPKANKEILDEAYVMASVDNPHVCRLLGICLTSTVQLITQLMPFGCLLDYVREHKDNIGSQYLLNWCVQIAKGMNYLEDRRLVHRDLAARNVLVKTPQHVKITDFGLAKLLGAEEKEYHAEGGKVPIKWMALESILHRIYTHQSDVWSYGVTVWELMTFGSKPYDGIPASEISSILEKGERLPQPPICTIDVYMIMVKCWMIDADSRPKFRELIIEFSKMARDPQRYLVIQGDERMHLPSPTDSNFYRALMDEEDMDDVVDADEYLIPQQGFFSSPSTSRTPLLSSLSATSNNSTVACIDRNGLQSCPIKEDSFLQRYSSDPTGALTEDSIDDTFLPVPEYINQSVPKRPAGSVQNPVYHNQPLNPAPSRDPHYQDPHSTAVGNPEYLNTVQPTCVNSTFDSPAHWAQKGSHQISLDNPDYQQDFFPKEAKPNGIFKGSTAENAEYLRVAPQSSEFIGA

S. aureus = test: Antibacterial activity, inhibition zone approach; format: cell-based, Staphylococcus aureus; details: for S. aureus Diameter of inhibition zone (mm): Gram-positive bacteria; for S. aureus % Activity index: gentamicin = 100; for antimicrobial activity with S. aureus, in words: authors' grading of Table 2 values, key not given
B. subtilis = test: Antibacterial activity, inhibition zone approach; format: cell-based, Bacillus subtilis; details: for B. subtilis Diameter of inhibition zone (mm): Gram-positive bacteria; for B. subtilis % Activity index: gentamicin = 100; for antimicrobial activity with B. subtilis, in words: authors' grading of Table 2 values, key not given
E. coli = test: Antibacterial activity, inhibition zone approach; format: cell-based, Escherichia coli; details: for E. coli Diameter of inhibition zone (mm): Gram-negative bacteria; for E. coli % Activity index: gentamicin = 100; for antimicrobial activity with E. coli, in words: authors' grading of Table 2 values, key not given
P. aeuroginosa = test: Antibacterial activity, inhibition zone approach; format: cell-based, Pseudomonas aeuroginosa; details: for P. aeuroginosa Diameter of inhibition zone (mm): Gram-negative bacteria; for P. aeuroginosa % Activity index: gentamicin = 100; for antimicrobial activity with P. aeuroginosa, in words: authors' grading of Table 2 values, key not given
C. albicans = test: Antifungal activity, inhibition zone approach; format: cell-based, Candida albicans; details: for C. albicans Diameter of inhibition zone (mm): Fungi; for C. albicans % Activity index: ketoconazole = 100; for antimicrobial activity with C. albicans, in words: authors' grading of Table 2 values, key not given
A. flavus = test: Antifungal activity, inhibition zone approach; format: cell-based, Aspergillus flavus; details: for A. flavus Diameter of inhibition zone (mm): Fungi; for A. flavus % Activity index: ketoconazole = 100; for antimicrobial activity with A. flavus, in words: authors' grading of Table 2 values, key not given
VEGFR-2 = VEGFR-2 (Homo sapiens, UniProt P35968); test: VEGFR-2 inhibitory activity, homogeneous luminescence release assay; format: biochemical; details: reference sorafenib; read-out: VEGFR-2 inhibition IC50
VEGFR-2, sequence (P35968 20-1356): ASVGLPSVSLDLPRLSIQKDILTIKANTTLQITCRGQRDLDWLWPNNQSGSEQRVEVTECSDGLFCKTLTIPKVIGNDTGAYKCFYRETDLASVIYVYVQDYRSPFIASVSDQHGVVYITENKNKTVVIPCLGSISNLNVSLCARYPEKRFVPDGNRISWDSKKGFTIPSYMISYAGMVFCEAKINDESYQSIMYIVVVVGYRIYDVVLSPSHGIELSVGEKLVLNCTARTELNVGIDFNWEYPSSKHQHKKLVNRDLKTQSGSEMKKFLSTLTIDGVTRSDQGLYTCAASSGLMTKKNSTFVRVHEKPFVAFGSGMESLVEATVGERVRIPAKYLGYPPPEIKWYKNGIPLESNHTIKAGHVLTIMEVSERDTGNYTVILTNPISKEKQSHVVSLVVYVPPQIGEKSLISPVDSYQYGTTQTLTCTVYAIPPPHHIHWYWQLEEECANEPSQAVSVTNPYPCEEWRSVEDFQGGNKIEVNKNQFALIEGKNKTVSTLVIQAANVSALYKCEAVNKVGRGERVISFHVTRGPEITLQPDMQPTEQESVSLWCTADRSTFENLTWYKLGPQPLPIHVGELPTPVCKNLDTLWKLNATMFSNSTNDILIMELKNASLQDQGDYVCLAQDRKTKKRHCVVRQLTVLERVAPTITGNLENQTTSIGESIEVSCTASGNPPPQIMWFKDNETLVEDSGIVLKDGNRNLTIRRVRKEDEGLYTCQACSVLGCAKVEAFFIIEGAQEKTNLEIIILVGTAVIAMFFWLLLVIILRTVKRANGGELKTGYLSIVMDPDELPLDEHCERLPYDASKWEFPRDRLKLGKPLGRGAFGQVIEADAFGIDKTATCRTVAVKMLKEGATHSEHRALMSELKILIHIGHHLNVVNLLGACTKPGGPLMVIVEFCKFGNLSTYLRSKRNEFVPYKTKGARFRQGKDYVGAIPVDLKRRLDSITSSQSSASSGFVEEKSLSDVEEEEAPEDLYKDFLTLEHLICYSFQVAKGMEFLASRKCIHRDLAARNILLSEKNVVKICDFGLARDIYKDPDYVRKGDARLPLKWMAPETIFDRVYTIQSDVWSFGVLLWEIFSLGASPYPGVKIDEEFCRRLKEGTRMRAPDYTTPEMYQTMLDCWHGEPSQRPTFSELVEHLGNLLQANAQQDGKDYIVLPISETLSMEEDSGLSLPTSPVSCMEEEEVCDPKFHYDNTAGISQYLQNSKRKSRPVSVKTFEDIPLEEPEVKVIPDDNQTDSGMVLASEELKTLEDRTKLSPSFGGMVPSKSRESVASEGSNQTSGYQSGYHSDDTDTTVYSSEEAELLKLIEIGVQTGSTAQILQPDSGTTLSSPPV
From the text: […]. Briefly, these μM inhibitory concentrations recommend greatly the proposed rationale design for the investigated compounds to act as promising dual EGFR/VEGFR-2 inhibitors.

| Compound | IC50 (HepG-2) | anti-proliferative activity against HepG-2, in words (HepG-2) | IC50 (MCF-7) | anti-proliferative activity against MCF-7, in words (MCF-7) | S. aureus Diameter of inhibition zone (mm) (S. aureus) | S. aureus % Activity index (S. aureus) | B. subtilis Diameter of inhibition zone (mm) (B. subtilis) | B. subtilis % Activity index (B. subtilis) | E. coli Diameter of inhibition zone (mm) (E. coli) | E. coli % Activity index (E. coli) | P. aeuroginosa Diameter of inhibition zone (mm) (P. aeuroginosa) | P. aeuroginosa % Activity index (P. aeuroginosa) | C. albicans Diameter of inhibition zone (mm) (C. albicans) | C. albicans % Activity index (C. albicans) | A. flavus Diameter of inhibition zone (mm) (A. flavus) | A. flavus % Activity index (A. flavus) | melting point | antimicrobial activity with S. aureus, in words (S. aureus) | antimicrobial activity with B. subtilis, in words (B. subtilis) | antimicrobial activity with E. coli, in words (E. coli) | other results |
| --- | --- | --- | --- | --- | --- | --- | --- | --- | --- | --- | --- | --- | --- | --- | --- | --- | --- | --- | --- | --- | --- |
| N#Cc1c(N)c2c(-c3cccs3)cc(-c3ccc(O)cc3)nc2[nH]c1=O [6a, 4-amino-7-(4-hydroxyphenyl)-2-oxo-5-(thiophen-2-yl)-1,2-dihydro-1,8-naphthyridine-3-carbonitrile] | 16.2 ± 1.3 µM | strong | 19.1 ± 1.6 µM | strong | 5 mm | 27.8% | 9 mm | 40.9% | 4 mm | 19.0% | 7 mm | 36.8% | 12 mm | 42.8% | 8 mm | 30.8% | 260 °C |  |  |  | IC50 (EGFR): 0.326 µM |
| N#Cc1c(-c2cccs2)cc(-c2ccc(O)cc2)nc1N [2a, 2-Amino-6-(4-hydroxyphenyl)-4-(thiophen-2-yl)nicotinonitrile] | 8.42 ± 0.6 µM | very strong | 9.59 ± 0.8 µM | very strong | 10 mm | 55.5% | 15 mm | 68.2% | 9 mm | 42.8% | 12 mm | 63.1% | 18 mm | 64.3% | 12 mm | 46.1% | 260 °C | moderate | strong | moderate | IC50 (EGFR): 0.209 µM; IC50 (VEGFR-2): 0.195 µM; antimicrobial activity with P. aeuroginosa, in words (P. aeuroginosa): strong; antimicrobial activity with C. albicans, in words (C. albicans): strong; antimicrobial activity with A. flavus, in words (A. flavus): moderate |
| Oc1ccc(-c2cc(-c3cccs3)nc(/N=C/c3ccccc3O)n2)cc1 [13a, (E)-2-(((4-(4-hydroxyphenyl)-6-(thiophen-2-yl)pyrimidin-2-yl)imino)methyl)phenol] | 34.8 ± 2.3 µM |  | 42.8 ± 2.6 µM |  | 14 mm | 77.8% | 18 mm | 81.8% | 13 mm | 61.9% | 15 mm | 78.9% | 21 mm | 75.0% | 16 mm | 61.5% | 133 to 135 °C | very strong | very strong | very strong | antimicrobial activity with P. aeuroginosa, in words (P. aeuroginosa): very strong; antimicrobial activity with C. albicans, in words (C. albicans): very strong; antimicrobial activity with A. flavus, in words (A. flavus): very strong |
| N#Cc1c(-c2cccs2)cc(-c2ccc(O)cc2)nc1O [5a, 2-hydroxy-6-(4-hydroxyphenyl)-4-(thiophen-2-yl)nicotinonitrile] | 43 ± 2.5 µM | moderate | 38.4 ± 2.5 µM | moderate | 6 mm | 33.3% | 10 mm | 45.4% | 5 mm | 23.8% | 10 mm | 52.6% | 14 mm | 50.0% | 8 mm | 30.8% | 200 °C |  |  |  |  |
| CC(=O)c1c(-c2cccs2)cc(-c2ccc(O)cc2)[nH]c1=O [3a, 3-Acetyl-6-(4-hydroxyphenyl)-4-(thiophen-2-yl)pyridin-2(1H)-one] | 53.2 ± 3.1 µM | moderate | 48.4 ± 2.7 µM | moderate | 5 mm | 27.8% | 9 mm | 40.9% | 4 mm | 19.0% | 6 mm | 31.6% | 11 mm | 39.3% | 10 mm | 38.5% | 220 °C |  |  |  |  |
| NC(=S)n1nc(-c2ccc(O)cc2)cc1-c1cccs1 [10a, 3-(4-hydroxyphenyl)-5-(thiophen-2-yl)-1H-pyrazole-1-carbothioamide] | 39.1 ± 2.4 µM | moderate | 23.7 ± 1.7 µM | moderate | 9 mm | 50.0% | 13 mm | 59.1% | 8 mm | 38.1% | 12 mm | 63.1% | 13 mm | 46.4% | 11 mm | 42.3% | 195 to 197 °C | moderate | moderate | moderate | antimicrobial activity with P. aeuroginosa, in words (P. aeuroginosa): moderate; antimicrobial activity with C. albicans, in words (C. albicans): moderate; antimicrobial activity with A. flavus, in words (A. flavus): moderate |
| NS(=O)(=O)c1ccc(NC(=O)CN2N=C(c3ccc(O)cc3)CC2c2cccs2)cc1 (stereo not drawn) [16a, 2-(3-(4-hydroxyphenyl)-5-(thiophen-2-yl)-4,5-dihydro-1H-pyrazol-1-yl)-N-(4-sulfamoylphenyl)acetamide] | 34.5 ± 2.2 µM | moderate | 29.1 ± 2 µM | moderate | 8 mm | 44.4% | 11 mm | 50.0% | 7 mm | 33.3% | 11 mm | 57.9% | 15 mm | 53.6% | 12 mm | 46.1% | 158 to 160 °C | moderate | moderate | weak | antimicrobial activity with P. aeuroginosa, in words (P. aeuroginosa): moderate; antimicrobial activity with C. albicans, in words (C. albicans): moderate; antimicrobial activity with A. flavus, in words (A. flavus): moderate |
| O=C(CNC(=S)n1nc(-c2ccc(Cl)c(Cl)c2)cc1-c1cccs1)c1ccccc1 [12b, 3-(3,4-dichlorophenyl)-N-(2-oxo-2-phenylethyl)-5-(thiophen-2-yl)-1H-pyrazole-1-carbothioamide] | 29.2 ± 2.1 µM |  | 36 ± 2.3 µM |  | 7 mm | 38.9% | 12 mm | 54.5% | 5 mm | 23.8% | 8 mm | 42.1% | 15 mm | 53.6% | 10 mm | 38.5% | 160 °C |  |  |  |  |
